Measured values: article PMC4669708 (Cell Death & Disease, 2015)

Key:
Assay in all cases: c-ponatinib pulldown LC-MS/MS
Type in all cases: binding
CCT4 = target: T1, CCT4 (Homo sapiens, UniProt P50991)
T1 sequence (P50991 1-539): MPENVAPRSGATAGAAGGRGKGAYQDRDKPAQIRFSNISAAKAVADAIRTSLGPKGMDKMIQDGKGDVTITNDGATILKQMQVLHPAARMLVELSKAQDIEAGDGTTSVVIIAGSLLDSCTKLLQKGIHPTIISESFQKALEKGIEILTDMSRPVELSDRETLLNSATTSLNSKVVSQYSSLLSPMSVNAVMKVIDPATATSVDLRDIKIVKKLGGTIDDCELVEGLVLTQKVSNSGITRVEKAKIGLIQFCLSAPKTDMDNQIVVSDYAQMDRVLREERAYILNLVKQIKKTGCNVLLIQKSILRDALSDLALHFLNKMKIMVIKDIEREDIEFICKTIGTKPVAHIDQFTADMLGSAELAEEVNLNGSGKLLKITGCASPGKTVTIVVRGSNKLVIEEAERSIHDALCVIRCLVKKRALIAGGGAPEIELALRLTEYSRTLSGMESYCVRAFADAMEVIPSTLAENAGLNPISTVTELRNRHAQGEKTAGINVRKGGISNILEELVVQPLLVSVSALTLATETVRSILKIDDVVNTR
How it was run: (§1)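 c-Ponatinib (25 nmol) immobilized on NHS-Sepharose was incubated with 10 mg whole cell lysate per replicate, in duplicate. Eluates were reduced, alkylated, trypsin-digested and analysed by gel-free 1D LC-MS/MS. Specificity was scored from Mascot, Phenyx and spectral counts, with competition by free compound.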

PTK2B = PTK2B (Homo sapiens, UniProt Q14289)
Sequence of PTK2B (Q14289 whole entry): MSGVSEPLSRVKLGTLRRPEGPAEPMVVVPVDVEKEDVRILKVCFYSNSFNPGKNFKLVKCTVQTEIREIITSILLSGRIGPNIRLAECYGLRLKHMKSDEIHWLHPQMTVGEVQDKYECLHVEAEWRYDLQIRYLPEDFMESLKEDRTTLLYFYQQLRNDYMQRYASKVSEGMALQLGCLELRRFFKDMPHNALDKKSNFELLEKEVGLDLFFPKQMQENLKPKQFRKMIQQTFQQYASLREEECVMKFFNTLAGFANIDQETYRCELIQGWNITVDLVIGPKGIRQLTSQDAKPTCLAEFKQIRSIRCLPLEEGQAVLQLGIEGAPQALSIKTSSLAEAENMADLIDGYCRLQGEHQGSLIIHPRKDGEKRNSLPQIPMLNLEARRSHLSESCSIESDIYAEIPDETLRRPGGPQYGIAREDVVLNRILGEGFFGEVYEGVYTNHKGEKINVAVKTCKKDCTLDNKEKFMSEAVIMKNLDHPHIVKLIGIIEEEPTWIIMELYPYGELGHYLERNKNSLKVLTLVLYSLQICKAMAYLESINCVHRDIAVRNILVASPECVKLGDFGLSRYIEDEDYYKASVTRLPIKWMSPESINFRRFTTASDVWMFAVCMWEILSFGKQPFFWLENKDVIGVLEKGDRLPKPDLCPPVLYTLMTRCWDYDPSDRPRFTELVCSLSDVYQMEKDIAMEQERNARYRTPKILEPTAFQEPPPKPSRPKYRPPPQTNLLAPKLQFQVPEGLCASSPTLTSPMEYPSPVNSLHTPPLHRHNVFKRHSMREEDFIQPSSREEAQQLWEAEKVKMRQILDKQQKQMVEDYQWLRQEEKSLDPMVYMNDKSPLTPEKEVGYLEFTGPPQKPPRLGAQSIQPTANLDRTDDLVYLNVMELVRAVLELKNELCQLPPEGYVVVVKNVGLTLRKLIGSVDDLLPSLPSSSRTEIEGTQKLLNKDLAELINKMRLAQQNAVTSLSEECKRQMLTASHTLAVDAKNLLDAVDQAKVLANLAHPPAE
How it was run: as §1

TUBA1B = TUBA1B (Homo sapiens, UniProt P68363)
Sequence of TUBA1B (P68363 whole entry): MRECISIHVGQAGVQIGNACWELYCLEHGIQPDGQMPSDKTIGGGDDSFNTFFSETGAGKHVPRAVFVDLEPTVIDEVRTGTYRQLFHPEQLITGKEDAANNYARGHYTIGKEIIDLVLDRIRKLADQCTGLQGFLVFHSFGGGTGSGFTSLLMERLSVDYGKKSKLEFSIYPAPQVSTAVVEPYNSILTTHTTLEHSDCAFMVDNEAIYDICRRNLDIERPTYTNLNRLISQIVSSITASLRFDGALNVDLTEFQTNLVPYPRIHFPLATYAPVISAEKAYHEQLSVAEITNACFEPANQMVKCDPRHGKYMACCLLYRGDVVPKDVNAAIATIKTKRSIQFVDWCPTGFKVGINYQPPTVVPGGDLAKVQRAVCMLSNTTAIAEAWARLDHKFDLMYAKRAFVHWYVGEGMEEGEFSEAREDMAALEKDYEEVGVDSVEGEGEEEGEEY
Sequence of TUBA1B (P07437 whole entry partner): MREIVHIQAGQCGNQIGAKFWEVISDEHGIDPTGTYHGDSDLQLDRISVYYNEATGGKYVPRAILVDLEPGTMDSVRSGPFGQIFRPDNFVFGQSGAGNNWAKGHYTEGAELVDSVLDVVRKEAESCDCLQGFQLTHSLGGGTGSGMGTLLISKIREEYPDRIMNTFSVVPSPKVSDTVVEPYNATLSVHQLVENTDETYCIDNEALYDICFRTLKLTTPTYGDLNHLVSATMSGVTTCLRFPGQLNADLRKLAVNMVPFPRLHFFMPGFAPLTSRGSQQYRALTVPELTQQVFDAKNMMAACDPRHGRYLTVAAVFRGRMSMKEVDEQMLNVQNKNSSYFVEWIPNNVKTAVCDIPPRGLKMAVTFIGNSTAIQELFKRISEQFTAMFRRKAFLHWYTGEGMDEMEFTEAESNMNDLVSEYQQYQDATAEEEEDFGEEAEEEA
How it was run: as §1

YWHAB = target: T2, YWHAB (Homo sapiens, UniProt P31946)
T2 sequence (P31946 1-246): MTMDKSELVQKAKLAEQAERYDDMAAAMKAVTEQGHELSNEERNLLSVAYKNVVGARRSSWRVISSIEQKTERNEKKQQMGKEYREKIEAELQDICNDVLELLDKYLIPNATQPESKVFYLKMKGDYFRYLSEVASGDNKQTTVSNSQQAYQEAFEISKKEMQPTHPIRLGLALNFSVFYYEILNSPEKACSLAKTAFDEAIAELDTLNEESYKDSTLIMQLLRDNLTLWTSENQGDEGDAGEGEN
How it was run: as §1

ZAK = ZAK (Homo sapiens, UniProt Q9NYL2)
Sequence of ZAK (Q9NYL2 whole entry): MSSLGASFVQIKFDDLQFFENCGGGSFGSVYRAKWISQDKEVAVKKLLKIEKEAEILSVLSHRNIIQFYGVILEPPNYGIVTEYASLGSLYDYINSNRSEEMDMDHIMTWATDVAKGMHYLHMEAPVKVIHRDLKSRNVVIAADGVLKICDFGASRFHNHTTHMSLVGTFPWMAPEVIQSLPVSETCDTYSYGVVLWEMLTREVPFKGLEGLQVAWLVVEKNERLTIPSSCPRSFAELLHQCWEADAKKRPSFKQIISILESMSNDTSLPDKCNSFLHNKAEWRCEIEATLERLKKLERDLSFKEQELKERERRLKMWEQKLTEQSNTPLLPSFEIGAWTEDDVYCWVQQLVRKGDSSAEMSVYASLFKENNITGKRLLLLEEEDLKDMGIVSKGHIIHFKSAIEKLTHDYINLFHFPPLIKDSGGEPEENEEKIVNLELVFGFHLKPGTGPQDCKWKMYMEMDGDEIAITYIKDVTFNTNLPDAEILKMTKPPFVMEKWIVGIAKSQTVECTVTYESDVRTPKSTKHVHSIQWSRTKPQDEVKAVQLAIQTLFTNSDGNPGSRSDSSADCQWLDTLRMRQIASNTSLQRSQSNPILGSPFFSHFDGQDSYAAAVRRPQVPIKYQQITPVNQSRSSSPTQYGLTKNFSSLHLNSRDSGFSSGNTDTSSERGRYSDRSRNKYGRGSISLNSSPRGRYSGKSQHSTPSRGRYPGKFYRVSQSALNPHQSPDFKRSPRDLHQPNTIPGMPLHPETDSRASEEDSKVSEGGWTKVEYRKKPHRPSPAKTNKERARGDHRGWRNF
How it was run: as §1

Question: With `Cc1ccc(C(=O)Nc2ccc(CN3CCN(CCCN)CC3)c(C(F)(F)F)c2)cc1C#Cc1cnc2cccnn12` [c-ponatinib] as the compound, how does the “Av. SC comp.” value (CCT4; + free ponatinib) read?
Answer: 0

Question: And the “Total SC comp.” value (CCT4; + free ponatinib)?
Answer: 0

Question: And the “Av. SC” value (CCT4; no competitor)?
Answer: 3.5

Question: And the “Total SC” value (CCT4; no competitor)?
Answer: 14

Question: What about the “Av. SC comp.” value (PTK2B; + free ponatinib) of the same compound?
Answer: 0

Question: And the “Total SC comp.” value (PTK2B; + free ponatinib)?
Answer: 0

Question: What about the “Av. SC” value (PTK2B; no competitor) of the same compound?
Answer: 32.5

Question: And the “Total SC” value (PTK2B; no competitor)?
Answer: 130

Question: And the “Av. SC comp.” value (TUBA1B; + free ponatinib)?
Answer: 10.25

Question: What about the “Total SC comp.” value (TUBA1B; + free ponatinib) of the same compound?
Answer: 41

Question: And the “Av. SC” value (TUBA1B; no competitor)?
Answer: 18.5

Question: And the “Total SC” value (TUBA1B; no competitor)?
Answer: 74

Question: And the “Av. SC comp.” value (YWHAB; + free ponatinib)?
Answer: 1

Question: And the “Total SC comp.” value (YWHAB; + free ponatinib)?
Answer: 4

Question: What about the “Av. SC” value (YWHAB; no competitor) of the same compound?
Answer: 7

Question: And the “Total SC” value (YWHAB; no competitor)?
Answer: 28

Question: And the “Av. SC comp.” value (ZAK; + free ponatinib)?
Answer: 0

Question: What about the “Total SC comp.” value (ZAK; + free ponatinib) of the same compound?
Answer: 0

Question: What about the “Av. SC” value (ZAK; no competitor) of the same compound?
Answer: 65.25

Question: What about the “Total SC” value (ZAK; no competitor) of the same compound?
Answer: 261
